According to US20250340561A1, “QUINAZOLINE COMPOUND FOR INDUCING DEGRADATION OF G12D MUTANT KRAS PROTEIN” (Astellas Pharma Inc., priority 2021, published 2025):

Target: T1, KRAS G12D (Homo sapiens, UniProt P01116, G12D)
T1 construct: host or cells: AsPC-1 human pancreatic cancer cells
Assay: Test Example 1-2: KRAS degradation action in AsPC-1, Cell ELISA
Type: cell-based
Details: AsPC-1 cells, overnight treatment, corrected with β-actin, 0% = 10 μM Example No. 26 (Example No. 8 for Example Nos. 74 and 75)
Experimental: Test Example 1-2: Evaluation of KRAS Degradation Action on Human G12D Mutant KRAS-Positive Pancreatic Cancer Line AsPC-1
The KRAS degradation action of test compounds was evaluated by measuring the expression levels of KRAS G12D by Cell ELISA.
[…] As for the cell culture conditions, a RPMI 1640 medium containing 10% fetal bovine serum was used in the presence of 5% CO2 at 37° C. The next day, the test compounds (10 points having final concentrations in the range of 10 μM to 0.3 nM), the compound of Example No. 26 (Example No. 8 for Example Nos. 74 and 75) of a final concentration of 10 μM as a positive control and DMSO, which was the solvent for the test compounds, as a negative control were diluted 500-fold with a fresh medium and were added at 20 μL per well. The cells were cultured overnight.
The next day, the culture supernatant was removed, and 4% paraformaldehyde phosphate buffer (from FUJIFILM Wako Pure Chemical Corporation) was added at 20 μL per well. The plate was allowed to stand for 30 minutes at room temperature to thus immobilize the cells. Then, the supernatant was removed, and 0.1% Triton X-100 (from Amersham Biosciences)-containing PBS was added at 20 μL per well. After allowing to stand for 10 minutes at room temperature, the supernatant was removed. PBS was added at 25 μL per well, and the supernatant was removed to thus wash each well. The washing was performed twice in total. Next, the supernatant was removed, and 0.5% sodium dodecyl sulfate (SDS; from Invitrogen)-containing PBS was added at 20 μL per well. After allowing to stand at room temperature for 10 minutes, the supernatant was removed by centrifugation (using a centrifugal dehydrator machine, the supernatant was removed by the same method hereinafter). PBS was added at 25 μL per well, and the supernatant was removed to thus wash each well. The washing was performed twice in total. The supernatant was removed by centrifugation, and a blocking solution (Intercept Blocking Buffer) was added at 20 μL per well. After allowing to stand for 30 minutes at room temperature, the supernatant was removed by centrifugation, and a solution obtained by diluting an anti-Ras (G12D Mutant Specific) antibody and an anti-3-actin antibody 1,000-fold with a blocking solution was added at 20 μL per well as a primary antibody. The plate was allowed to stand overnight at 4° C.
The next day, the plate was centrifuged to remove the supernatant. PBS was added at […], and the supernatant was removed to thus wash each well. The washing was performed twice in total. The supernatant was removed by centrifugation, and a solution obtained by diluting Donkey anti-Mouse IgG H&L (TRDye 680RD) (from Li—COR Biosciences) and Goat anti-Rabbit IgG H&L (IRDye 800CW) (from Li—COR Biosciences) 1,000-fold with a blocking solution was added at 20 μL per well as a secondary antibody. After allowing to stand for 1 hour at room temperature, the supernatant was removed. PBS was added at 25 μL per well, and the supernatant was removed to thus wash each well. The washing was performed twice in total. After removing the supernatant by centrifuging the plate, the plate was dried as it was with air at room temperature for 2 hours or more, and the 700-nm and 800-nm fluorescent signals were measured with Aerius (from LI-COR Biosciences).
With the signaling value at the time of addition of DMSO corrected with the signaling value of β-actin taken as 100% and with the signaling value at the time of addition of 10 μM of the compound of Example No. 26 taken as 0%, the 50% degradation values (DC50) of the amounts of KRAS were calculated by Sigmoid-Emax model nonlinear regression analysis. The molecular weights of the test compounds were calculated as the molecular weights of the trihydrochloride for Example No. 30, the tetrahydrochloride for Example No. 46 and the free forms forming no salt for the remaining Example Nos. The results for some test compounds of the formula (I) are shown in Table 2.

T1 sequence (P01116 1-188 isoform P01116-2 G12D): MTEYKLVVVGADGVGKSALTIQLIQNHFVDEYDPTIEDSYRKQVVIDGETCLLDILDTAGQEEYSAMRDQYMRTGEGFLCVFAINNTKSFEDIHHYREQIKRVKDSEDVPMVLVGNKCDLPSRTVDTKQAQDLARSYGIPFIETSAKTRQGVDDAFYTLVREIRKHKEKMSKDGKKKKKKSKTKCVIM

Row | SMILES | DC50 [nM]
1 | Cc1ncsc1-c1ccc([C@H](CO)NC(=O)[C@@H]2C[C@@H](O)CN2C(=O)[C@H](C(C)C)n2cc(-c3ccc(COc4c(-c5c(C)c(F)cc6[nH]ncc56)c(C5CC5)cc5c(N6C[C@@H]7C[C@H]6CN7)nc(OC6CCOCC6)nc45)cc3F)nn2)cc1 [Example 49, (4R)-1-[(2S)-2-(4-{4-[({6-cyclopropyl-4-[(1S,4S)-2,5-diazabicyclo[2.2.1]heptan-2-yl]-7-(6-fluoro-5-methyl-1H-indazol-4-yl)-2-[(oxan-4-yl)oxy]quinazolin-8-yl}oxy)methyl]-2-fluorophenyl}-1H-1,2,3-triazol-1-yl)-3-methylbutanoyl]-4-hydroxy-N-{(1R)-2-hydroxy-1-[4-(4-methyl-1,3-thiazol-5-yl)phenyl]ethyl}-L-prolinamide] | 15
2 | Cc1ncsc1-c1ccc([C@H](CO)NC(=O)[C@@H]2C[C@@H](O)CN2C(=O)[C@H](C(C)C)n2cc(-c3ccc(COc4c(-c5c(C)c(F)cc6[nH]ncc56)c(C5CC5)cc5c(N6C[C@@H]7C[C@H]6CN7)nc(O[C@@H](C)[C@H](C)O)nc45)cc3)nn2)cc1 [Example 42] | 6
3 | COCC1(COc2nc(N3C[C@@H]4C[C@H]3CN4)c3cc(C4CC4)c(-c4c(C)c(F)cc5[nH]ncc45)c(OCc4ccc(-c5cn([C@H](C(=O)N6C[C@H](O)C[C@H]6C(=O)N[C@@H](CO)c6ccc(-c7scnc7C)cc6)C(C)C)nn5)cc4)c3n2)CC1 [Example 62] | 10
4 | Cc1ncsc1-c1ccc([C@H](CO)NC(=O)[C@@H]2C[C@@H](O)CN2C(=O)[C@H](C(C)C)n2cc(-c3ccc(COc4c(-c5c(C)c(F)cc6[nH]ncc56)c(C5CC5)cc5c(N6C[C@@H]7C[C@H]6CN7)nc(OC[C@H](C)N6CCCC6)nc45)cc3)nn2)cc1 [Example 64] | 48
5 | CO[C@@H](C)COc1nc(N2C[C@@H]3C[C@H]2CN3)c2cc(C3CC3)c(-c3c(C)c(F)cc4[nH]ncc34)c(OCc3ccc(-c4cn([C@H](C(=O)N5C[C@H](O)C[C@H]5C(=O)N[C@@H](CO)c5ccc(-c6scnc6C)cc5)C(C)C)nn4)cc3)c2n1 [Example 48] | 4
6 | Cc1c(F)cc2[nH]ncc2c1-c1c(C2CC2)cc2c(N3C[C@@H]4C[C@H]3CN4)nc(OC3CCOCC3)nc2c1OCc1ccc(-c2cn([C@H](C(=O)N3C[C@H](O)C[C@H]3C(=O)N[C@@H](CO)c3ccccc3F)C(C)C)nn2)cc1 [Example 30] | 157
7 | Cc1ncsc1-c1ccc([C@H](CO)NC(=O)[C@@H]2C[C@@H](O)CN2C(=O)[C@H](C(C)C)n2cc(-c3ccc(COc4c(-c5c(C)c(F)cc6[nH]ncc56)c(C5CC5)cc5c(N6C[C@@H]7C[C@H]6CN7)nc(OC[C@H]6CCOC6)nc45)cc3)nn2)cc1 [Example 52] | 10
8 | CO[C@@H](C)COc1nc(N2C[C@@H]3C[C@H]2CN3)c2cc(C3CC3)c(-c3c(C)c(F)cc4[nH]ncc34)c(OCc3ccc(-c4cn([C@H](C(=O)N5C[C@H](O)C[C@H]5C(=O)N[C@@H](CO)c5ccc(N6CCOC6=O)cc5)C(C)C)nn4)cc3)c2n1 [Example 59] | 45
9 | Cc1ncsc1-c1ccc([C@H](CO)NC(=O)[C@@H]2C[C@@H](O)CN2C(=O)[C@H](C(C)C)n2cc(-c3ccc(COc4c(-c5c(C)c(F)cc6[nH]ncc56)c(C5CC5)cc5c(N6C[C@@H]7C[C@H]6CN7)nc(OC6CCOCC6)nc45)cc3)nn2)nc1 [Example 35] | 84
10 | COC[C@H](CN1CCOCC1)Oc1nc(N2C[C@@H]3C[C@H]2CN3)c2cc(C3CC3)c(-c3c(C)c(F)cc4[nH]ncc34)c(OCc3ccc(-c4cn([C@H](C(=O)N5C[C@H](O)C[C@H]5C(=O)N[C@@H](CO)c5ccc(-c6scnc6C)cc5)C(C)C)nn4)cc3)c2n1 [Example 55] | 24
11 | Cc1ncoc1-c1ccc([C@H](CO)NC(=O)[C@@H]2C[C@@H](O)CN2C(=O)[C@H](C(C)C)n2cc(-c3ccc(COc4c(-c5c(C)c(F)cc6[nH]ncc56)c(C5CC5)cc5c(N6C[C@@H]7C[C@H]6CN7)nc(OC6CCOCC6)nc45)cc3)nn2)cc1 [Example 38] | 53
12 | Cc1ncsc1-c1ccc([C@H](CO)NC(=O)[C@@H]2C[C@@H](O)CN2C(=O)[C@H](C(C)C)n2cc(-c3ccc(COc4c(-c5c(C)c(F)cc6[nH]ncc56)c(C5CC5)cc5c(N6C[C@@H]7C[C@H]6CN7)nc(OC[C@H](C)N6CCOCC6)nc45)cc3)nn2)cc1 [Example 65] | 14
13 | CO[C@@H](C)COc1nc(N2C[C@@H]3C[C@H]2CN3)c2cc(C3CC3)c(-c3c(C)c(F)cc4[nH]ncc34)c(OCc3ccc(-c4cn([C@H](C(=O)N5C[C@H](O)C[C@H]5C(=O)N[C@@H](CO)c5ccc(F)cc5)C(C)C)nn4)cc3)c2n1 [Example 58] | 37
14 | Cc1c(F)cc2[nH]ncc2c1-c1c(C2CC2)cc2c(N3C[C@@H]4C[C@H]3CN4)nc(OC3CCOCC3)nc2c1OCc1ccc(-c2cn([C@H](C(=O)N3C[C@H](O)C[C@H]3C(=O)N[C@@H](CO)c3ccc(-n4ccnc4C)cc3)C(C)C)nn2)cc1 [Example 69] | 31
15 | Cc1ncsc1-c1ccc([C@H](CO)NC(=O)[C@@H]2C[C@@H](O)CN2C(=O)[C@H](C(C)C)n2cc(-c3ccc(COc4c(-c5c(C)c(F)cc6[nH]ncc56)c(C5CC5)cc5c(N6C[C@@H]7C[C@H]6CN7)nc(OC[C@@H]6CCOC6)nc45)cc3)nn2)cc1 [Example 53] | 8
16 | CC[C@@H](C)Oc1nc(N2C[C@@H]3C[C@H]2CN3)c2cc(C3CC3)c(-c3c(C)c(F)cc4[nH]ncc34)c(OCc3ccc(-c4cn([C@H](C(=O)N5C[C@H](O)C[C@H]5C(=O)N[C@@H](CO)c5ccc(-c6scnc6C)cc5)C(C)C)nn4)cc3)c2n1 [Example 43] | 10
17 | Cc1ncsc1-c1ccc([C@H](CO)NC(=O)[C@@H]2C[C@@H](O)CN2C(=O)[C@H](C(C)C)n2cc(-c3ccc(COc4c(-c5c(C)c(F)cc6[nH]ncc56)c(C5CC5)cc5c(N6C[C@@H]7C[C@H]6CN7)nc(OCC67CCCN6CCC7)nc45)cc3)nn2)cc1 [Example 44] | 111
18 | COC[C@@H](C)Oc1nc(N2C[C@@H]3C[C@H]2CN3)c2cc(C3CC3)c(-c3c(C)c(F)cc4[nH]ncc34)c(OCc3ccc(-c4cn([C@H](C(=O)N5C[C@H](O)C[C@H]5C(=O)N[C@@H](CO)c5ccc(-c6scnc6C)cc5)C(C)C)nn4)cc3)c2n1 [Example 40] | 5
19 | CO[C@@H](C)[C@H](C)Oc1nc(N2C[C@@H]3C[C@H]2CN3)c2cc(C3CC3)c(-c3c(C)c(F)cc4[nH]ncc34)c(OCc3ccc(-c4cn([C@H](C(=O)N5C[C@H](O)C[C@H]5C(=O)N[C@@H](CO)c5ccc(-c6scnc6C)cc5)C(C)C)nn4)cc3)c2n1 [Example 41] | 9
